Test results reported in patent US7323541B2, “Polypeptide DNA thereof and use of the same” (Takeda Pharmaceutical Company Limited, priority 2001, dated 2008).

Tests used:
Format in all cases: cell-based, human
[1] = test system: HCT 116; assay: Apoptosis induction (Cell Death Detection ELISA PLUS); conditions: for Apoptosis inducing activity (A405-A492), Average: HCT 116, oligonucleotide 520 nM, three days
Method: (§1) Human colon cancer cell line COLO 205 acquired from ATCC was suspended in the RPMI-1640 medium (containing 25 mM HEPES) supplemented with 10% fetal calf serum (ATCC), and seeded at the cell density of 4000 per well in 96-well collagen type I coated plate (IWAKI). Human colon cancer cell line LS 174T acquired from ATCC was suspended in the Eagle's MEM, which is supplied from Invitrogen, supplemented with 10% fetal calf serum (ATCC), and seeded at the cell density of 3000 per well in 96-well flat bottom culture plate (BD Falcon). Human colon cancer cell line HCT 116 (ATCC) was suspended in D-MEM medium (containing 10 mM HEPES), which is supplied from Invitrogen, supplemented with 10% fetal calf serum (ATCC), and seeded at the cell density of 3000 per well in 96-well flat bottom culture plate (BD Falcon). After incubation under 5% CO2 gas flow at 37° C. for overnight, antisense oligonucleotide was transfected.
(§2) Antisense oligonucleotide sequence (SEQ ID NO: 123), which hybridizes to the translation region of TGR23 gene, was designed. Phosphorothioate-oligonucleotide was synthesized and purified by HPLC to use the transfection experiment (hereinafter, referred to as antisense oligonucleotide). For control, a reverse sequence (SEQ ID NO: 124) of the base sequence represented by SEQ ID NO: 123 was phosphorothioated and purified by HPLC to use (hereinafter, referred to as control oligonucleotide).
(§3) Specifically, in the case of COLO 205, to FuGENE™6 Transfection Reagent (Roche Diagnostics), which was diluted 167 fold with Opti-MEM I (Invitrogen), antisense oligonucleotide or control oligonucleotide was added. The mixed oligonucleotide solution was added to the plate at the ratio of 65 μl per well. The final concentration of oligonucleotide was adjusted to 200 nM. In the case of LS 174T, to Lipofectamine™2000 (Invitrogen), which was diluted 32 fold with Opti-MEM I (Invitrogen), antisense oligonucleotide or control oligonucleotide, which was diluted with Opti-MEM I (Invitrogen), was added at the ratio of 1:1. The mixed oligonucleotide solution was added to the plate at the ratio of 50 μl per well. The final concentration of oligonucleotide was adjusted to 33 nM. In the case of HCT 116, to OLIGOFECTAMINE™ Reagent (Invitrogen), which was diluted 5 fold with Opti-MEM I (Invitrogen), antisense oligonucleotide or control oligonucleotide, which was diluted with Opti-MEM I (Invitrogen), was added at the ratio of 3:8. The mixed oligonucleotide solution was added to the plate at the ratio of 40 μl per well. The final concentration of oligonucleotide was adjusted to 520 nM.
(§4) Under the above conditions, culture was continued for further three days. Using Cell Death Detection ELISA^PLUS Kit (Roche Diagnostics), in accordance with the attached protocol, apopyosis induction activity by the above oligonucleotide was measured.

[2] = test system: COLO 205; assay: as above; conditions: for Apoptosis inducing activity (A405-A492), Average: COLO 205, oligonucleotide 200 nM, three days
Method: as §1, §2, §3, §4

[3] = test system: LS 174T; assay: as above; conditions: for Apoptosis inducing activity (A405-A492), Average: LS174T, oligonucleotide 33 nM, three days
Method: as §1, §2, §3, §4

[4] = test system: TGR23 gene in COLO 205; assay: Reduction of TGR23 gene expression (TaqMan PCR); conditions: COLO 205, overnight after transfection
Method: (§5) The human colon cancer cell lines COLO 205 and LS 174T, wherein both were used in Example 46, were suspended in the same medium as that used in Example 46. The COLO 205 was seeded at the cell density of 24,000 per well to 24-well collagen type I coated plate (IWAKI), and the LS 174T was seeded at the cell density of 18,000 per well to 24-well flat bottom tissue culture plate (BD Falcon). After cell culture under 5% CO2 gas flow at 37° C. for overnight, in accordance with the method described in Example 46, the antisense oligonucleotide and control oligonucleotide, wherein both were used in Example 46, were transfected. Herein, adding volume of the oligonucleotide solution per well was 390 μl for COLO 205 and 300 μl for LS 174T. After transfection, the cells were cultured under 5% CO2 gas flow at 37° C. for overnight. Subsequently, using RNeasy Mini Total RNA Kit (QIAGEN), total RNA was extracted. Using the thus obtained total RNA as a template and TaqMan Reverse Transcription Reagents (Applied Biosystems), according to the attached protocol, reverse transcription reaction was carried out. Then using TaqMan Universal PCR Master Mix (Applied Biosystems), to the reaction sixture, cDNA corresponding 1.5 to 3 ng of total RNA as a template, 500 nM each of two primers (SEQ ID NO: 9 and SEQ ID NO: 10) and 100 nM FM-labeled probe (SEQ ID NO: 11) were added. The expressed copy numbers of the TGR23 gene were measured. The PCR reaction comprised the incubation at 50° C. for 2 minutes and 95° C. for 10 minutes, followed by the cycle set to include at 95° C. for 15 seconds and at 60° C. for one minute, which is repeated 40 times. When the antisense oligonucleotide and the control oligonucleotide were not transfected, an expression level of the TGR23 gene per 1 ng of total RNA was 620 copies for COLO 205 and 290 copies for LS 174T, whereas in the group with antisense oligonucleotide, it was 210 copies for COLO 205 and 150 copies for LS 174T. […] On the other hand, in the group with control oligonucleotide used as a negative control, the expression was 590 copies for COLO 205 and 280 copies for LS 174T, wherein it was not observed a statistically significant reduction of expression level, compared with non-transfection group.

[5] = test system: TGR23 gene in LS 174T; assay: Reduction of TGR23 gene expression (TaqMan PCR); conditions: overnight after transfection
Method: as §5

Substance | apoptosis induction activity compared with control oligonucleotide ([1]; HCT 116, in which TGR23 is not expressed) | Apoptosis inducing activity (A405-A492), Average [1] | Apoptosis inducing activity (A405-A492), Average [2] | apoptosis induction activity relative to control oligonucleotide ([2]; COLO 205, p≦0.05) [fold] | Apoptosis inducing activity (A405-A492), Average [3] | apoptosis induction activity relative to control oligonucleotide ([3]; LS 174T, p≦0.01) [fold] | expression level of the TGR23 gene per 1 ng of total RNA [4] [copies] | expression level of the TGR23 gene per 1 ng of total RNA [5] [copies]
antisense oligonucleotide: phosphorothioate oligonucleotide which hybridizes to the translation region of TGR23 gene (antisense GACCCACAGAGTTATCAATT; DNA, all phosphorothioate, methylation of C not given here) | did not exhibit a significant apoptosis induction activity | 0.68 | 0.83 | 1.6 | 1.1 | 1.3 | 210 | 150
control oligonucleotide: phosphorothioated reverse sequence of SEQ ID NO: 123, negative control (TTAACTATTGAGACACCCAG; DNA, all phosphorothioate, methylation of C not given here) [reference compound] |  | 0.72 | 0.52 |  | 0.88 |  | 590 | 280
